One substance from PMC8694143 (Microbiology Spectrum, 2021) can be followed below.

For one data set, the system named is M. luteus ATCC 4698. As to the kind of experiment: MIC determination in broth. It counts as cell-based, Micrococcus luteus.
The test system of data set [1] is S. aureus bovid isolate (RDM-1). As to the kind of experiment: MIC determination in broth. The class given is cell-based, Staphylococcus aureus. To be noted: clinical isolate, mastitis in a dairy cow; MH broth. The procedure: (§1) The MICs were measured for bioactive peptides identified from the initial screen. Cation-adjusted Mueller-Hinton (MH) broth was used as the growth medium for MIC determination experiments. Bacterial cultures were diluted to an OD of 5 × 10^−4 (∼10^5 CFU/mL) in 200 μL MH broth mixed with peptides in a 2-fold dilution series arrayed in 96-well plates. Plates were incubated without shaking at 30 or 37°C depending on the organism.

A further data set concerns S. equorum. As to the kind of experiment: MIC determination in broth. To be noted: isolate from the healthy quarter of a dairy cow; MH broth. The class given is cell-based, Staphylococcus equorum. As for the experimental part:
as §1

The next data set concerns 3D EpiDerm skin tissues. As to the kind of experiment: Tissue cytotoxicity, alamarBlue. It counts as cell-based, human. Particulars: 250 μg/mL (40-fold the MIC), 24 h, data not shown. The procedure:
Cytotoxicity was measured using the 3D EpiDerm skin tissues and HeLa (ATCC CCL-2) cells using a fluorescent reporter of cell viability, alamarBlue (ThermoFisher Scientific). 3D EpiDerm skin tissues (MatTek EPI-200-AFAB) were transferred to a 12-well plate containing 600 μL of AFAB-assay medium supplemented with 10% vol/vol alamarBlue. […] HeLa cells were seeded in a 96-well plate at 2 × 10^4 cells/per well and incubated overnight at 37°C in a humidified 5% CO2 environment to prepare wells at ∼50% confluence for treatments after spent Dulbecco’s modified Eagle’s medium (DMEM) was removed and cells were washed with PBS. Assays were then performed using phenol red-free DMEM supplement with 9% vol/vol alamarBlue and peptide concentrations varying from 3.13 to 200 μg/mL. After a 24 h incubation period, alamarBlue fluorescence emission was measured at 590 nm upon excitation at 560 nm using Varioskan Lux plate reader (Thermo Scientific). Fluorescence intensities of treated cultures were normalized to measurement made for untreated control samples. Experimental data sets were fit to nonlinear dose-response curves to determine IC50 values using Origin 2019.

The test system of a further data set is panel of 7 MRSA strains. As to the kind of experiment: Bactericidal activity time course, MRSA panel. The class given is cell-based, Staphylococcus aureus. The procedure:
Time-dependent inhibition of pathogens was measured using standing bacterial cultures treated with 2× MIC. Overnight cultures were diluted to 10^4 or 10^7 CFU/mL in 2 mL of MH broth supplemented with the appropriate peptide concentration or sterile water as a control. Standing cultures were then incubated at 37°C and 100 μL aliquots were removed at specified time intervals. For the panel of 7 MRSA strains, treatment intervals of 30 min, 4 h, 8 h, and 24 h were used. For MRSA ATCC 33592, ATCC 1683, and S. pseudintermedius SPC002, shorter intervals included 5, 30, 60, 120, 240, and 360 min. The 100-μL aliquots were plated using serial dilutions as necessary on LB agar, and CFU were counted as a measure of bacterial viability after 24 h. To normalize cell viability data, surviving cells in CFU/mL were compared to the initial bacterial inoculum of each strain and then expressed as a percentage of that concentration. All experiments were performed in triplicate with values reported as the mean with standard deviations. Statistical differences in the observed viability of bacteria treated with STIP3-29 were analyzed using a paired two-tailed Student’s t test comparing the pretreatment (0 h) viability to those observed at posttreatment time points using Stata v17.0 software.

In data set [2] the test system is Mannheimia haemolytica ATCC 33396. As to the kind of experiment: MIC determination in broth. It counts as cell-based. Particulars: MH broth. The procedure: as §1
The subject of a further data set is S. scuri. The data set can be described thus: MIC determination in broth. The class given is cell-based. Particulars: isolate from the healthy quarter of a dairy cow; MH broth. As for the experimental part: as §1
The subject of the next data set is Escherichia coli DH10B. The data set can be described thus: MIC determination in broth. The class given is cell-based. To be noted: MH broth. The procedure: as §1
Data set [3] relates to Pseudomonas aeruginosa ATCC 27853. The data set can be described thus: MIC determination in broth. The class given is cell-based. Particulars: MH broth. As for the experimental part:
as §1

Another data set relates to MRSA 33592. As to the kind of experiment: Transmission electron microscopy. Particulars: 25 μg/mL, PBS, 37°C. It counts as cell-based, Staphylococcus aureus. As for the experimental part:
Samples for TEM imaging were prepared by diluting MRSA 33592 cultures to an OD of 0.5 in PBS before the cell suspension was treated with 25 μg/mL STIP3-29. Treated and untreated cells were incubated at 37°C. Treated samples were prepared from imaging after 30 min and 4 h of treatment. An untreated control sample was prepared after a 4 h incubation period. Cells from the distinct time points or treatments were harvested by centrifugation, fixed for 4 h using 2% glutaraldehyde, postfixed for 1 h with 1% OsO4, dehydrated with a graded ethanol series, embedded in Epon, and en bloc stained with saturated uranyl acetate in 70% ethanol prior to sectioning. Imaging was performed using a Hitachi HT7700 instrument.

The next data set deals with MRSA ATCC 33592. The data set can be described thus: MIC determination in broth. It counts as cell-based, Staphylococcus aureus. The method in brief: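 MIC read after unshaken incubation at 37°C of bacteria (∼10^5 CFU/mL, OD 5 × 10^−4) with twofold peptide dilutions in cation-adjusted MH broth.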
Data set [4] relates to S. pseudintermedius canine isolate MSSP42. The data set can be described thus: MIC determination in broth. It counts as cell-based, Staphylococcus pseudintermedius. To be noted: MH broth. As for the experimental part: as §1
For data set [5], the system named is S. pseudintermedius human isolate SPC002 (MSSP). As to the kind of experiment: MIC determination in broth. Particulars: MH broth. It counts as cell-based, Staphylococcus pseudintermedius. As for the experimental part: as §1
Data set [6] has as its system S. pseudintermedius canine isolate MRSP24. As to the kind of experiment: MIC determination in broth. The class given is cell-based, Staphylococcus pseudintermedius. Particulars: MH broth. The procedure:
as §1

Data set [7] has as its system S. pseudintermedius canine isolate MRSP16. As to the kind of experiment: MIC determination in broth. It counts as cell-based, Staphylococcus pseudintermedius. To be noted: MH broth. The procedure: as §1
The subject of data set [8] is S. pseudintermedius human isolate SPC001 (MSSP). The data set can be described thus: MIC determination in broth. To be noted: MH broth. It counts as cell-based, Staphylococcus pseudintermedius. As for the experimental part:
as §1

In data set [9] the test system is S. pseudintermedius human isolate SPC020 (MSSR). The data set can be described thus: MIC determination in broth. The class given is cell-based, Staphylococcus pseudintermedius. To be noted: MH broth. As for the experimental part:
as §1

No end group written: not given here.

On to TVGGLVKWILKTVKKFA-NH2 [STIP3-29], for which the “MIC, M. luteus” value against M. luteus ATCC 4698 (cation-adjusted MH broth, ~10^5 CFU/mL, 30°C, 48 h) came to 1.56 µg/mL. The “MIC, M. luteus, molar” value with M. luteus ATCC 4698 (conversion of 1.56 μg/mL) was determined as 0.85 µM. Also, the “MIC, S. aureus bovid isolate (RDM-1)” value in data set [1] was found to be 6.25 µg/mL. Also, in the data set with S. equorum, the “MIC, S. equorum” value amounted to 3.13 µg/mL. In addition, in the data set with 3D EpiDerm skin tissues, the “Tissue-level cytotoxicity, redox-sensitive dye” value is “unable to differentiate STIP3-29-treated and untreated samples”. The “Recovery of viable MRSA cells” value in the data set with panel of 7 MRSA strains (12.5 μg/mL (2× MIC), MH broth, 37°C, 4 h, all 7 MRSA strains, triplicate) was “less than 1%”. Moreover, the “Mode of antibacterial action from viability time courses” value with panel of 7 MRSA strains (MRSA viability during two time course experiments) is “bactericidal”. Moreover, the “MIC, Mannheimia haemolytica ATCC 33396” value in data set [2] came to 6.25 µg/mL. The “MIC, S. scuri” value in the data set with S. scuri stood at 3.13 µg/mL. In addition, in the data set with Escherichia coli DH10B, the “MIC, Escherichia coli DH10B” value was determined as 12.5 µg/mL. Further, the “MIC, Pseudomonas aeruginosa ATCC 27853” value in data set [3] was 50 µg/mL. Moreover, the “Peptide-induced lysis by TEM, 30 min” value with MRSA 33592 (30 min) was “No peptide-induced lysis was observed”. For the same substance, in the data set on MRSA 33592 (4 h), the “Peptide-induced lysis by TEM, 4 h” value is listed as “evidence was present”. The “Improvement to antibiotic activity relative to STIP3-1” value with MRSA ATCC 33592 (S. aureus ATCC 29213 and MRSA panel MICs) is 16 fold. For the same substance, in the data set on MRSA ATCC 33592 (Table 1 and text, cation-adjusted MH broth, ~10^5 CFU/mL, 37°C, 16 h), the “MIC (μg/mL) for MRSA ATCC 33592” value stood at 6.25 µg/mL. In the data set on MRSA ATCC 33592 (Table S5, STIP3 variants, highest conc. tested 100 μg/mL, cation-adjusted MH broth, ~10^5 CFU/mL, 2-fold dilution series, 37°C, 16 h), the “MIC, S. aureus ATCC 33592 (SCCmec III)” value came to 6.25 µg/mL. Also, in the data set on MRSA ATCC 33592 (conversion of 6.25 μg/mL), the “MIC for MRSA, molar” value stood at 3.3 µM. Moreover, in data set [4], the “MIC, S. pseudintermedius MSSP42” value was determined as 3.13 µg/mL. Besides, in data set [5], the “MIC, S. pseudintermedius SPC002 (MSSP)” value turned out to be 3.13 µg/mL. The “MIC, S. pseudintermedius MRSP24” value in [6] turned out to be 3.13 µg/mL. Also, in [7], the “MIC, S. pseudintermedius MRSP16” value amounted to 3.13 µg/mL. Also, the “MIC, S. pseudintermedius SPC001 (MSSP)” value in data set [8] stood at 3.13 µg/mL. Further, the “MIC, S. pseudintermedius SPC020 (MSSR)” value in [9] came to 3.13 µg/mL.
